In patent US10327423B2, “Antimicrobial compounds and compositions, and uses thereof” (Akeso Biomedical, Inc., priority 2014, dated 2019):
“Also recorded” adds a separate entry of the source.

Key:
[1] = tested on: Staphylococcus aureus ATCC 25923; assay: Biofilm formation on plastic coated UV beads; format: cell-based; conditions: different concentrations of Fe-QA; T=24 h
Method: (§1) Bacteria (Enterococcus faecalis NCTC 12697, Staphylococcus epidermidis F1513 and Staphylococcus aureus ATCC 25923) were grown on Brain heart infusion (BHI) passaged to new medium either containing Fe-QA or alone. Growth suspensions were prepared at 0.0001 OD/ml and then allowed to grow at 37° C. under normal atmospheric conditions for 24 h in BHI with plastic coated UV beads (Lascells). […], 10 μl suspension was serially diluted 10 fold to 10-3, 10-4, 10-5, 10-6, 10-7, 10-8. For each dilution, 10 μl was spotted on BHI agar plates and colonies counted after 24 h. The beads were also removed washed in PBS before adding to 1 ml PBS. After vortex mixing, 10 μl of the cell suspension was serially diluted as above and cell counts carried out.
The effect of Fe-QA on biofilm formation by S. aureus was tested as described in the materials and methods of Example 1.

[2] = tested on: Campylobacter jejuni NCTC 11168 (wildtype and strain carrying a kanamycin resistance gene); assay: Patch test on growth plates with Fe-QA and kanamycin; format: cell-based
Description: The wildtype C. jejuni grew normally, and was not affected by FeQ. A patch was also immersed in a solution of kanamycin and Fe-QA, and placed on a growth plate of wildtype C. jejuni. The growth of C. jejuni was impacted showing that wildtype C. jejuni is sensitive to the presence of kanamycin.
The patch experiments were repeated with a Campylobacter jejuni NCTC 11168 strain carrying a kanamycin resistance gene wherein patches were immersed in (i) kanamycin only, (ii) Fe-QA only, and (iii) kanamycin and Fe-QA. The growth of the C. jejuni strain carrying the kanamycin resistance gene was not impacted by the patches immersed in (i) kanamycin and (ii) Fe-QA, however, the growth was impacted by the patch that was immersed in both kanamycin and Fe-QA.

[3] = tested on: Pseudomonas aeruginosa PAO-1; assay: Biofilm coverage rate on glass slides (SYTO17, laser scanning microscopy); format: cell-based; conditions: Fe-QA 100 μM; 72 hours
Method: (§2) Pseudomonas aeruginosa PAO-1, and a clinically isolated uropathogenic Escherichia coli UPEC-536 were routinely grown on either LB (Luria-Bertani, Oxoid, UK) agar plates at 37° C. or in broth at 37° C. with 200 rpm shaking. UV-sterilized glass slides were incubated in either 15 mL RPMI-1640 defined medium (Sigma, UK) or 15 mL RPMI-1640 with Fe-QA inoculated with diluted (OD600=0.01) bacteria from overnight cultures at 37° C. with 60 rpm shaking for 72 hours. The slides were removed from bacterial culture and washed with 15 mL phosphate buffered saline at room temperature for 5 minutes three times and then rinsed with distilled H2O. After washing, the slides were stained with 20 μM SYTO17 dye (Invitrogen, UK) at room temperature for 30 minutes. After removing excess staining dye and air-drying, the samples were examined using a Carl Zeiss LSM 700 Laser Scanning Microscope with ZEN 2009 imaging software (Carl Zeiss, Germany). The coverage rate of bacteria on the surface was analysed using open source Image J 1.44 software (National Institute of Health, US).

[4] = tested on: uropathogenic Escherichia coli UPEC-536; assay: as above; format: cell-based; conditions: Fe-QA 0.1 μM, 1 μM, aM and 100 μM; 72 hours
Method: as §2

[5] = tested on: Enterococcus faecalis NCTC 12697; assay: Biofilm formation on plastic coated UV beads; format: cell-based; conditions: different concentrations of Fe-QA; T=24 h
Method: as §1

[6] = tested on: Psuedomonas aeruginosa (PAO1N); assay: Growth (OD600) in LB with Amikacin, tolerance to antibiotic; format: cell-based, Pseudomonas aeruginosa; conditions: 34, 100, 200 and 340 μM of FeQ or FePhe; Amikacin 10 µg/ml; 17.5 hours at 37° C.
Method: (§3) To investigate effects upon antibiotic resistance, a laboratory strain of Psuedomonas aeruginosa (PAO1N) and a mixed population of clinical isolates (PAO Mixed) were incubated in Luria-Bertani (LB) media alone, or with different concentrations (34 μM, 100 μM, 200 μM and 340 μM) of FeQ or FePhe.
(§4) Each of the different media, bar one control, contained 10 µg/ml of the aminoglycoside antibiotic Amikacin.
(§5) 10 μl of the bacterial strains were added into each well of a 96-well micro-titer plate, before 290 μl of the relevant media was added to wells. Each different condition was repeated in sextuplicate.
(§6) The plate was incubated at 37° C. within a micro-titer plate reader for 17.5 hours, with the OD600 read every 30 minutes.

[7] = tested on: mixed population of clinical isolates (PAO Mixed); assay: as above; format: cell-based, Pseudomonas aeruginosa; conditions: 34, 100, 200 and 340 μM of FeQ or FePhe; Amikacin 10 µg/ml; 17.5 hours at 37° C.
Method: as §3, §4, §5, §6

[8] = tested on: Enteropathogenic E. coli (EPEC) E2348/69; assay: Crystal violet assay of attachment to plastic wells; format: cell-based, Escherichia coli; conditions: FeQ 100 μM; 48 hours at 37° C.
Method: (§7) Enteropathogenic E. coli (EPEC) E2348/69 were grown in wells for 48 hours at 37° C. in the presence of FeQ (100 μM), and in the absence of FeQ (as control). After 48 hours, the wells were washed in order to remove suspended cells. Crystal violet was then added to each well. The wells were then washed to remove excess dye. A mixture of acetone/ethanol was then added to the wells to re-suspend any cells attached to the plastic surface of the wells, and dissolve any dye present. The presence of dye in each well was then quantified by measuring the O.D. at 570 nm.
as §7, with “FeDOPA (10-250” for “FeQ (100”, “FeDOPA” for “FeQ”

## O=C1[O][Fe]23([O]C(=O)[C@]4(C[C@@H](O)[C@H](O)[C@H](O)C4)[O]2)([O]C(=O)[C@]2(C[C@@H](O)[C@H](O)[C@H](O)C2)[O]3)[O][C@@]12C[C@@H](O)[C@H](O)[C@H](O)C2 [FeQ, a complex of quinic acid with Fe III]
[1]
  biofilm formation on plastic coated UV beads: inhibited
[2]; strain carrying kanamycin resistance gene, patch with Fe-QA only
  growth on plate around patch: not impacted
[2]; strain carrying kanamycin resistance gene, patch with kanamycin and Fe-QA
  growth on plate around patch: retarded; also recorded: impacted
[2]; wildtype C. jejuni (no kanamycin resistance gene), patch with Fe-QA alone
  growth on plate around patch: not affected
[2]; wildtype C. jejuni, patch with kanamycin and Fe-QA
  growth on plate around patch: impacted
[3]
  biofilm formation (coverage rate on glass slide): inhibits
[4]
  biofilm formation (coverage rate on glass slide): inhibits
[5]
  biofilm formation on plastic coated UV beads: inhibited
[6]
  tolerance to the aminoglycoside Amikacin (OD600 growth): reducing tolerance
[7]
  tolerance to the aminoglycoside Amikacin (OD600 growth): reducing tolerance
[8]
  attachment of EPEC cells to plastic well surface and biofilm formation (crystal violet, O.D. 570 nm): little or no attachment of bacterial cells to the surface and no biofilm formation
